Measured values: PubChem BioAssay AID248 (DTP/NCI, 2004)
Several values for one entry are separate records, joined by “and”; a condition that tells them apart may be missing. Equal entries are not always repeated. Inconclusive results and toxic doses are left out. Cut-off read from the data, not from the text of the source: active = T/C of 150% or more; inactive = T/C below 125%.

System: L1210 leukemia ip in BDF1 mice, survival T/C
Assay: NCI In Vivo Anticancer Drug Screen. Data for tumor model L1210 Leukemia (intraperitoneal) in B6D2F1 (BDF1) mice
Details: endpoint: mean survival time, higher = longer survival
Method in brief: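 Survival endpoint. Drug-treated group vs vehicle group, expressed as T divided by C. Tumor passaged by transplantation.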

[1] = dose: 50.0 mg/kg/injection, schedule: Q01DX009 (ip), vehicle: Klucel (hydroxypropylcellulose) (HPC)
[2] = dose: 100.0 mg/kg/injection, schedule: Q01DX001 (ip), vehicle: Klucel (hydroxypropylcellulose) (HPC)
[3] = dose: 100.0 mg/kg/injection, schedule: Q01DX009 (ip), vehicle: Klucel (hydroxypropylcellulose) (HPC)
[4] = dose: 200.0 mg/kg/injection, schedule: Q01DX001 (ip), vehicle: Klucel (hydroxypropylcellulose) (HPC)
[5] = dose: 400.0 mg/kg/injection, schedule: Q01DX001 (ip), vehicle: Klucel (hydroxypropylcellulose) (HPC)
[6] = dose: 100.0 mg/kg/injection, schedule: Q04DX003 (ip), vehicle: saline with Tween-80
[7] = dose: 200.0 mg/kg/injection, schedule: Q04DX003 (ip), vehicle: Klucel (hydroxypropylcellulose) (HPC)
[8] = dose: 400.0 mg/kg/injection, schedule: Q04DX003 (ip), vehicle: Klucel (hydroxypropylcellulose) (HPC)
[9] = dose: 200.0 mg/kg/injection, schedule: Q04DX003 (ip), vehicle: saline with Tween-80
[10] = dose: 400.0 mg/kg/injection, schedule: Q04DX003 (ip), vehicle: saline with Tween-80
[11] = dose: 100.0 mg/kg/injection, schedule: Q04DX002 (ip), vehicle: Klucel (hydroxypropylcellulose) (HPC)
[12] = dose: 200.0 mg/kg/injection, schedule: Q04DX002 (ip), vehicle: Klucel (hydroxypropylcellulose) (HPC)
[13] = dose: 400.0 mg/kg/injection, schedule: Q04DX002 (ip), vehicle: Klucel (hydroxypropylcellulose) (HPC)

Measured: T/C

CCCCCCCCCC(N)=O
inactive: [1] 97 % of control | [2] 110 % of control | [3] 90 % of control | [4] 100 % of control | [5] 93 % of control

NC(N)=NCCCOc1ccc([N+](=O)[O-])cc1
inactive: dose: 25.0 mg/kg/injection, schedule: Q04DX003 (ip), vehicle: saline 96 % of control | dose: 50.0 mg/kg/injection, schedule: Q04DX003 (ip), vehicle: saline 100 % of control | [6] 101 % of control | dose: 100.0 mg/kg/injection, schedule: Q04DX003 (ip), vehicle: saline 94 % of control

Cc1c2ccncc2cc2c3ccccc3n(CCO)c12
inactive: dose: 9.38 mg/kg/injection, schedule: Q01DX009 (ip), vehicle: Klucel (hydroxypropylcellulose) (HPC) 105 % of control | dose: 18.75 mg/kg/injection, schedule: Q01DX009 (ip), vehicle: Klucel (hydroxypropylcellulose) (HPC) 107 % of control | dose: 18.75 mg/kg/injection, schedule: Q04DX003 (ip), vehicle: Klucel (hydroxypropylcellulose) (HPC) 97 % of control | dose: 37.5 mg/kg/injection, schedule: Q01DX009 (ip), vehicle: Klucel (hydroxypropylcellulose) (HPC) 107 % of control | dose: 37.5 mg/kg/injection, schedule: Q04DX003 (ip), vehicle: Klucel (hydroxypropylcellulose) (HPC) 107 % of control | dose: 75.0 mg/kg/injection, schedule: Q04DX003 (ip), vehicle: Klucel (hydroxypropylcellulose) (HPC) 105 % of control | [7] 98 % of control | [8] 104 % of control

CCO/C=N/N(C)c1n[n+]([O-])ccc1C
inactive: dose: 100.0 mg/kg/injection, schedule: Q04DX002 (ip), vehicle: saline 110 % of control | dose: 200.0 mg/kg/injection, schedule: Q04DX002 (ip), vehicle: saline 104 % of control | dose: 400.0 mg/kg/injection, schedule: Q04DX002 (ip), vehicle: saline 101 % of control

CC1(C)C=CN(c2ccc(Cl)cc2)C(=O)O1
inactive: dose: 100.0 mg/kg/injection, schedule: Q04DX002 (ip), vehicle: gum acacia 103 % of control | dose: 200.0 mg/kg/injection, schedule: Q04DX002 (ip), vehicle: gum acacia 97 % of control | dose: 400.0 mg/kg/injection, schedule: Q04DX002 (ip), vehicle: gum acacia 87 % of control

N#CC(C#N)=C1c2ccccc2C(=O)c2ccccc21
inactive: dose: 50.0 mg/kg/injection, schedule: Q01DX001 (ip), vehicle: carboxymethylcellulose (CMC) 104 % of control | dose: 100.0 mg/kg/injection, schedule: Q01DX001 (ip), vehicle: carboxymethylcellulose (CMC) 104 % of control | [6] 97 % of control | dose: 200.0 mg/kg/injection, schedule: Q01DX001 (ip), vehicle: carboxymethylcellulose (CMC) 104 % of control | [9] 98 % of control | dose: 400.0 mg/kg/injection, schedule: Q01DX001 (ip), vehicle: carboxymethylcellulose (CMC) 106 % of control | [10] 87 % of control

O=C(N/N=C/c1ccccn1)c1ccc(Cl)cc1
inactive: dose: 50.0 mg/kg/injection, schedule: Q01DX009 (ip), vehicle: saline with Tween-80 104 % of control | dose: 100.0 mg/kg/injection, schedule: Q01DX009 (ip), vehicle: saline with Tween-80 86 % of control | dose: 200.0 mg/kg/injection, schedule: Q01DX009 (ip), vehicle: saline with Tween-80 107 % of control

N#CCC1C(=O)Nc2ccccc21 (stereo not given)
inactive: dose: 100.0 mg/kg/injection, schedule: Q01DX001 (ip), vehicle: saline 101 % of control | dose: 200.0 mg/kg/injection, schedule: Q01DX001 (ip), vehicle: saline 98 % of control | dose: 400.0 mg/kg/injection, schedule: Q01DX001 (ip), vehicle: saline 101 % of control

COc1cc([N+](=O)[O-])ccc1NC(=O)Nc1cccc(C(F)(F)F)c1
inactive: dose: 100.0 mg/kg/injection, schedule: Q01DX009 (ip), vehicle: gum acacia 92 % of control | dose: 200.0 mg/kg/injection, schedule: Q01DX009 (ip), vehicle: gum acacia 92 % of control

CCCCCCCCCCCCN1CCSCC1
inactive: dose: 25.0 mg/kg/injection, schedule: Q04DX003 (ip), vehicle: saline with Tween-80 95 % of control and 105 % of control | dose: 50.0 mg/kg/injection, schedule: Q04DX003 (ip), vehicle: saline with Tween-80 104 % of control and 90 % of control | dose: 100.0 mg/kg/injection, schedule: Q01DX001 (ip), vehicle: saline with Tween-80 105 % of control and 117 % of control | dose: 100.0 mg/kg/injection, schedule: Q04DX002 (ip), vehicle: saline with Tween-80 95 % of control and 113 % of control | dose: 200.0 mg/kg/injection, schedule: Q01DX001 (ip), vehicle: saline with Tween-80 94 % of control and 117 % of control | dose: 200.0 mg/kg/injection, schedule: Q04DX002 (ip), vehicle: saline with Tween-80 95 % of control and 113 % of control | [9] 93 % of control and 104 % of control and 110 % of control | dose: 400.0 mg/kg/injection, schedule: Q01DX001 (ip), vehicle: saline with Tween-80 97 % of control and 104 % of control | dose: 400.0 mg/kg/injection, schedule: Q04DX002 (ip), vehicle: saline with Tween-80 97 % of control and 98 % of control | [10] 108 % of control and 90 % of control

Cc1cc2c(cc1C)C1(c3ccc(Cl)cc3)OC2(c2ccc(Cl)cc2)C2C(=O)OC(=O)C21 (stereo not given)
inactive: [2] 94 % of control | [4] 92 % of control | [5] 97 % of control

CCOC1OC(=O)c2cccc3ccc4cccc1c4c23 (stereo not given)
inactive: [11] 90 % of control | [12] 86 % of control | [13] 93 % of control

O=C(O)c1cccnc1
inactive: dose: 25.0 mg/kg/injection, schedule: Q01DX009 (ip), vehicle: Klucel (hydroxypropylcellulose) (HPC) 103 % of control | dose: 25.0 mg/kg/injection, schedule: Q04DX003 (ip), vehicle: Klucel (hydroxypropylcellulose) (HPC) 91 % of control | [1] 100 % of control | dose: 50.0 mg/kg/injection, schedule: Q04DX003 (ip), vehicle: Klucel (hydroxypropylcellulose) (HPC) 89 % of control | [3] 96 % of control | dose: 100.0 mg/kg/injection, schedule: Q04DX003 (ip), vehicle: Klucel (hydroxypropylcellulose) (HPC) 100 % of control | dose: 200.0 mg/kg/injection, schedule: Q01DX009 (ip), vehicle: Klucel (hydroxypropylcellulose) (HPC) 95 % of control | [7] 91 % of control | [8] 107 % of control

CCN(CC)C(C)(C)COC(=O)c1ccc([N+](=O)[O-])cc1
inactive: dose: 222.0 mg/kg/injection, schedule: Q01DX Z (ip), vehicle: methylcellulose (MC) 121 % of control | dose: 333.0 mg/kg/injection, schedule: Q01DX Z (ip), vehicle: methylcellulose (MC) 101 % of control | dose: 500.0 mg/kg/injection, schedule: Q01DX Z (ip), vehicle: methylcellulose (MC) 96 % of control

CCCCCCCCCCCCCCCCCC(=O)NCNC(=O)CCCCCCCCCCCCCCCCC
inactive: dose: 9.37 mg/kg/injection, schedule: Q01DX009 (ip), vehicle: saline with Tween-80 92 % of control | dose: 18.75 mg/kg/injection, schedule: Q01DX009 (ip), vehicle: saline with Tween-80 90 % of control | dose: 37.5 mg/kg/injection, schedule: Q01DX009 (ip), vehicle: saline with Tween-80 86 % of control and 89 % of control | dose: 37.5 mg/kg/injection, schedule: Q04DX003 (ip), vehicle: saline with Tween-80 89 % of control | dose: 75.0 mg/kg/injection, schedule: Q04DX003 (ip), vehicle: saline with Tween-80 89 % of control | dose: 150.0 mg/kg/injection, schedule: Q04DX003 (ip), vehicle: saline with Tween-80 87 % of control

COc1cc(/C=N/NC(=O)c2ccccc2N)ccc1O
inactive: [11] 98 % of control | [12] 106 % of control | [13] 109 % of control
